Laboratory results reported in US20240350430A1, “GROWTH INHIBITOR OF METASTATIC HUMAN PROSTATE CANCER CELLS” (Watanabe Oyster Laboratory Co., Ltd., priority 2021, published 2024).

Legend:
DU-145 cells = assay: Cell migration scratch assay, DU-145 cells; format: cell-based, human; settings: DHMBA 1, 10, 100, or 1000 μM, 48 hours
Protocol: The migration of the prostate cancer PC-3 and DU-145 cells was examined using a scratch assay. The PC-3 and DU-145 cells (the cell number of 2×10^5/in 1 ml of a culture fluid per hole using a 24-hole plate) were cultured in a DMEM culture fluid containing 10% of FBS, 1% of P/S, and 1% of fungizone under 5% of CO2, at 37° C., for 48 hours, and a straight line scratch was performed using a pipette tip (200 μl) when the cells reached confluence. Free cells were washed with PBS to be removed, the above-described culture fluid (containing 0.1, 1, 10, 100, or 1000 μM of the DHMBA) was added, and the cells were cultured for 48 hours. After the culture, intervals of cell-free parts were measured.
The PC-3 and DU-145 cells (the cell number of 2× 10^5/1 ml of a culture fluid per hole using a 24-hole plate) were cultured under 5% of CO2, at 37° C., for 48 hours in a DMEM culture fluid containing 10% of FBS, 1% of P/S, and 1% of fungizone, and a straight line scratch was performed using a pipette tip (200 μl) when the cells reached confluence. Free cells were washed with PBS to be removed, the above-described culture fluid (containing 0.1, 1, 10, 100, or 1000 μM of the DHMBA) was added, and the cells were cultured for 48 hours. After the culture, intervals of cell-free parts were measured. […]

PC-3 cells = assay: Western blot of protein expression levels in PC-3 cells; format: cell-based, human; settings: DHMBA 10 μM, three days
Protocol: The PC-3 cells (1×10^6 cells/10 ml, 100-mm dish) were cultured in a DMEM culture fluid containing 10% of FBS, 1% of P/S, and 1% of fungizone under 5% of CO2, at 37° C., for three days. In addition, the culture fluid contained the DHMBA (10 μM). After the culture, the cells were adjusted by adding a cell lysis buffer (Cell Signaling Technology, Danvers, MA, USA) containing proteolytic enzyme and a protein phosphatase activity inhibitor. The cell solution was centrifuged at 17,000×g at 4° C. for 10 minutes to collect the supernatant. An amount of protein in the supernatant was measured using Bio-Rad Protein Assay Dye (Bio-Rad Laboratories, Inc., Hercules, CA, USA) with albumin as reference protein. Protein samples were stored in a freezer at −80° C. until being used. Using 40 μg of a protein sample solution, the product was added to SDS polyacrylamide gel electrophoresis (SDS-PAGE, 12%) and separated. After that, the protein molecules were transferred to a nylon membrane. Immunoblot was performed on the membrane using an antibody that specifically bound to the protein molecules. The antibodies, such as Ras (cat. no. 3339, rabbit), Akt (cat. no. 9272, rabbit), mitogen-activated protein kinase (MAPK: cat. no. 4695, rabbit), phosphorylated-MAPK (cat. no. 4370, rabbit), mechanistic target of rapamycin (mTOR, cat. no. 4517, mouse), Rb (cat. no. 9309, mouse), p21 (cat. no. 2947, rabbit), caveolin-1 (cat. no. 3267, rabbit), and β-actin (cat. no. 3700, mouse), were purchased from Cell Signaling Technology (Danvers, MA, USA). Also, p53 (cat. no. sc-126, mouse), NF-κB p65 (cat. no. sc-109, rabbit), and integrin β1 (cat. no. sc-13590, mouse) were obtained from Santa Cruz Biotechnology, Inc. (Santa Cruz, CA, USA). In addition, rabbit anti-regucalcin antibody was purchased from Sigma-Aldrich (cat. no. HPA029103, rabbit). Target proteins were incubated at low temperature for 16 hours using the primary antibodies described above. After that, using a secondary antibody of horseradish peroxidase-conjugated secondary antibodies (Santa Cruz Biotechnology, Inc., mouse sc-2005 or rabbit sc-2305; diluted 1:1,000), incubation was performed for 60 minutes at room temperature. After that, protein bands were illuminated with chemiluminescence substrate (cat. no. 34577, Thermo Scientific, Rockford, IL, USA) and exposed and detected on X-ray films using a developer.
(§1) The PC-3 cells (1×10^6 cells/10 ml, 100-mm dish) were cultured under 5% of CO2, at 37° C., for three days in a DMEM culture fluid containing 10% of FBS, 1% of P/S, and 1% of fungizone. In addition, the culture fluid contained the DHMBA (10 μM). After the culture, the cells were adjusted by adding a cell lysis buffer (Cell Signaling Technology, Danvers, MA, USA) containing proteolytic enzyme and a protein phosphatase activity inhibitor. Using 40 μg of a protein sample solution, the product was separated by SDS polyacrylamide gel electrophoresis (SDS-PAGE, 12%). After that, the protein molecules were transferred to a nylon membrane. Immunoblot was performed on the membrane using an antibody that specifically bound to the protein molecules.
as §1, with “In FIG. 5(G), the” for “The”, “molecules. […]” for “molecules.”

COc1c(O)cc(CO)cc1O [DHMBA, 3,5-dihydroxy-4-methoxybenzyl alcohol]
significantly inhibited: migration (DU-145 cells) | expression level of Akt (PC-3 cells) | expression level of MAP kinase (PC-3 cells) | expression level of PI3 kinase (PC-3 cells) | expression level of Ras (PC-3 cells) | expression level of mTOR (PC-3 cells) | expression level of phospho-MAP kinase (PC-3 cells)
significantly increased: expression level of Rb (PC-3 cells) | expression level of p21 (PC-3 cells) | expression level of p53 (PC-3 cells) | expression level of regucalcin (PC-3 cells)
increased: level of activated caspase 3 (cleaved caspase-3) (PC-3 cells) | level of caspase 3 (PC-3 cells)
significantly decreased: expression level of NF-κB p65 (PC-3 cells) | expression level of caveolin-1 (PC-3 cells) | expression level of integrin β1 (PC-3 cells)
